Several values for one entry are separate records, joined by “and”; a condition that tells them apart may be missing. Equal entries are not always repeated.
Experimental: Subjects with localized known or suspected infection were recruited and provided informed consent according to guidelines of the University of Pennsylvania Institutional Review Board. […] The full study protocols are available at clinicaltrials.gov, NCT03424525 and were performed under the authority of the University of Pennsylvania Radioactive Drug Research Committee.
PET scans were acquired from head to mid-thigh over 15 min in 10 overlapping bed positions at 90 s per bed position with ~ 50% bed overlap. The first PET scan was started immediately following injection, followed by a second scan at 20 ± 3 min post-injection, and a third scan at 63 ± 4 min post-injection. Suspected infections outside of the dosimetry scan field of view were optionally imaged following the acquisition of the final dosimetry scan. Subjects had the option to void bladders between the second and third PET/CT scans and following the last scan, without urine collection. Images were reconstructed using a list-mode time-of-flight ordered subsets expectation maximization algorithm (TOF-OSEM). […] These images were reconstructed using TOF-OSEM, but were not included in the quantitative dosimetry results (Fig. 2).
Total activity in the brain, gallbladder, heart, intestines, kidneys, liver, lungs, pancreas, spleen, thyroids, and urinary bladder was assessed via PET with MIM v6.7 (MIM Software Inc.), using co-registered CT images to delineate regions of interest. To enable estimation of total activity in red bone marrow, tracer uptake and volume were measured based on activity concentrations in the 2nd to 4th lumbar vertebrae of each subject. Using a red marrow density of 1.03 g/mL and assuming that red marrow weight is 1.6% of total body weight, total red marrow activity was calculated for each subject. Time activity curves for organs were generated and in most cases fit to mono- or bi-exponential functions using OLINDA | EXM v1.1 software RRID:SCR_026835 [23]. For time activity curves that were poorly fit by exponential functions, a Riemann Sum was used to calculate numbers of disintegrations occurring in the organs. Dosimetry estimates were calculated using the Standard Adult Male phantom option in OLINDA.

[1] = average injected activity of 346 MBq (9.4 mCi)

**Q.** What does the source list for COc1cc(Cc2cnc(N)nc2N)cc(OC)c1O[11CH3] [[^11C]TMP, [^11C]trimethoprim]?
**A.** Effective dose (Mean ± SD, n = 4 males): 4.53E-03 mSv/MBq and 4.53E-03 ± 2.22E-04 mSv/MBq; Effective dose equivalent (Mean ± SD, n = 4 males): 6.08E-03 ± 3.49E-04 mSv/MBq; Mean absorbed dose estimate, Adrenals (Mean ± SD, n = 4 males): 3.47E-03 ± 1.13E-04 mSv/MBq; Mean absorbed dose estimate, Bone (red marrow) (Mean ± SD, n = 4 males): 3.75E-03 ± 4.17E-04 mSv/MBq; Mean absorbed dose estimate, Brain (Mean ± SD, n = 4 males): 1.37E-03 ± 3.00E-04 mSv/MBq; Mean absorbed dose estimate, Breasts (Mean ± SD, n = 4 males): 1.95E-03 ± 8.35E-05 mSv/MBq; Mean absorbed dose estimate, Heart wall (Mean ± SD, n = 4 males): 4.66E-03 ± 3.36E-04 mSv/MBq; Mean absorbed dose estimate, Kidneys (Mean ± SD, n = 4 males): 1.35E-02 mSv/MBq and 1.35E-02 ± 2.44E-03 mSv/MBq; Mean absorbed dose estimate, Liver (Mean ± SD, n = 4 males): 1.43E-02 mSv/MBq and 1.43E-02 ± 1.58E-03 mSv/MBq; Mean absorbed dose estimate, Lower large intestine wall (Mean ± SD, n = 4 males): 2.83E-03 ± 8.88E-05 mSv/MBq; Mean absorbed dose estimate, Lungs (Mean ± SD, n = 4 males): 5.62E-03 ± 1.05E-03 mSv/MBq; Mean absorbed dose estimate, Muscle (Mean ± SD, n = 4 males): 2.25E-03 ± 6.29E-05 mSv/MBq; Mean absorbed dose estimate, Osteogenic cells (Mean ± SD, n = 4 males): 3.98E-03 ± 2.42E-04 mSv/MBq; Mean absorbed dose estimate, Ovaries (Mean ± SD, n = 4 males): 3.07E-03 ± 1.25E-04 mSv/MBq; Mean absorbed dose estimate, Pancreas (Mean ± SD, n = 4 males): 5.27E-03 ± 2.20E-03 mSv/MBq; Mean absorbed dose estimate, Skin (Mean ± SD, n = 4 males): 1.73E-03 ± 6.60E-05 mSv/MBq; Mean absorbed dose estimate, Small intestine (Mean ± SD, n = 4 males): 9.29E-03 ± 2.33E-03 mSv/MBq; Mean absorbed dose estimate, Spleen (Mean ± SD, n = 4 males): 1.18E-02 mSv/MBq and 1.18E-02 ± 4.64E-03 mSv/MBq; Mean absorbed dose estimate, Stomach wall (Mean ± SD, n = 4 males): 2.83E-03 ± 6.34E-05 mSv/MBq; Mean absorbed dose estimate, Testes (Mean ± SD, n = 4 males): 2.03E-03 ± 1.05E-04 mSv/MBq; Mean absorbed dose estimate, Thymus (Mean ± SD, n = 4 males): 2.31E-03 ± 9.59E-05 mSv/MBq; Mean absorbed dose estimate, Thyroid (Mean ± SD, n = 4 males): 5.96E-03 ± 1.73E-03 mSv/MBq; Mean absorbed dose estimate, Total Body (Mean ± SD, n = 4 males): 2.84E-03 ± 6.24E-05 mSv/MBq; Mean absorbed dose estimate, Upper large intestine wall (Mean ± SD, n = 4 males): 4.86E-03 ± 7.38E-04 mSv/MBq; Mean absorbed dose estimate, Urinary bladder wall (Mean ± SD, n = 4 males): 1.10E-02 mSv/MBq and 1.10E-02 ± 5.55E-03 mSv/MBq; Mean absorbed dose estimate, Uterus (Mean ± SD, n = 4 males): 3.21E-03 ± 2.24E-04 mSv/MBq; Mean absorbed dose estimate, Gallbladder wall (Mean ± SD, one subject with cholecystectomy removed): 5.00E-03 ± 4.43E-04 mSv/MBq; background uptake in the brain (PET imaging, 4 adult males): low background uptake in the brain; estimated absorbed dose in the spleen [1]: 4.1 mSv; estimated effective dose [1]: 1.6 mSv; estimated absorbed dose in the liver (average injected activity of 346 MBq (9.4 mCi), highest uptake organ): 4.9 mSv

Reference: article PMC12966202 (Molecular Imaging and Biology, 2025)
